# Tested on: db/db mice
# Experiment: Antidiabetic effects in db/db mice (serum chemistry after 4 weeks of daily oral dosing)
# Format: in vivo
# Settings: for blood glucose, effect in words: versus vehicle; for Triglycerides ± SEM (serum) / Glucose ± SEM (serum glucose) / Free Fatty Acids ± SEM (serum): male obese db/db mice, 100 mg/kg daily oral, treatment for 4 weeks, mean ± SEM; for Triglycerides ± SEM (serum): vehicle 621 ± 54, lean 96.4 ± 6.4; for Glucose ± SEM (serum glucose): vehicle 747 ± 19, lean control 193 ± 11; for Free Fatty Acids ± SEM (serum): vehicle 2415 ± 134, lean 1637 ± 105
# Excerpt: Db/db mice have a defect in leptin signaling, leading to hyperphagia, obesity and diabetes. Moreover, unlike ob/ob mice on a C57BL/6J background, db/db mice on a C57BLKS background undergo failure of their insulin-producing pancreatic islet cells, resulting in progression from hyperinsulinemia (associated with peripheral insulin resistance) to hypoinsulinemic diabetes.
# Male obese (db/db homozygote) C57B/Ksola mice approximately 8 weeks of age, were obtained from Jackson Labs (Bar Harbor, Me.) and randomly assigned into groups of 5-7 animals such that the body weights (40-45 g) and serum glucose levels (≧300 mg/dl in fed state) were similar between groups; male lean (db/+heterozygote) mice served as cohort controls. A minimum of 7 days was allowed for adaptation after arrival. All animals were maintained under controlled temperature (23° C.), relative humidity (50±5%) and light (7:00-19:00), and allowed free access to standard chow (Formulab Diet 5008, Quality Lab Products, Elkridge, Md.) and water.
# Treatment cohorts were given daily oral doses of vehicle, compound CO (100 mg/kg), or Compound CP (100 mg/kg) for 4 weeks. At the end of the treatment period 100 μl of venous blood was withdrawn in a heparinized capillary tube from the retro-orbital sinus for serum chemistry analysis.
# [1] = db/db mice, after 4 weeks of daily oral dosing, 100 mg/kg
# [2] = db/db mice, after 4 weeks of daily oral dosing, 100 mg/kg, versus vehicle-treated db/db mice
Structure (SMILES),"blood glucose, effect in words [1]","serum triglycerides, effect in words [2]",Triglycerides ± SEM (serum) [mg/dL],Glucose ± SEM (serum glucose) [mg/dL],Free Fatty Acids ± SEM (serum) [µM],"serum free fatty acids, effect in words [2]"
"CCOC(=O)CC/C=C/c1cccc(OCc2c(C)cccc2C)c1 [Cpd. CO, 5-[3-(2,6-Dimethylbenzyloxy)-phenyl]-pent-4-enoic acid ethyl ester]",significant reduction,reduced,320 ± 30,651 ± 36,2689 ± 70,–
"CCOC(=O)CCC/C=C/c1cccc(OCc2c(C)cccc2C)c1 [Cpd. CP, 6-[3-(2,6-Dimethylbenzyloxy)-phenyl]-hex-5-enoic acid ethyl ester]",significant reduction,reduced,150 ± 34,404 ± 101,1765 ± 39,reduced
